Data published in article PMC6985185 (Breast cancer research and treatment, 2019).

Assays:
uterus = assay: Uterine wet weight in LTED tumor bearing mice; format: in vivo, Nu:J mice; settings: ovariectomized LTED tumor bearing mice, after 4 weeks of treatment at the LTED study doses
TamR xenograft tumors = assay: TamR Study 2: growth of tamoxifen-resistant xenograft tumors under oral SERDs

C[C@@H]1Cc2c([nH]c3ccccc23)[C@@H](c2c(F)cc(/C=C/C(=O)O)cc2F)N1CC(C)(C)F [AZD9496]
Uterine wet weight (measure of uterine stimulation) (uterus): significantly increased uterine weight
% tumor growth inhibition of TamR tumors (TamR xenograft tumors; AZD9496 10 mg/kg po qd, day 0 of treatment): −3%
% tumor growth inhibition of TamR tumors (TamR xenograft tumors; AZD9496 10 mg/kg po qd, day 2 of treatment): 13%
% tumor growth inhibition of TamR tumors (TamR xenograft tumors; AZD9496 10 mg/kg po qd, day 4 of treatment): 18%
% tumor growth inhibition of TamR tumors (TamR xenograft tumors; AZD9496 10 mg/kg po qd, day 7 of treatment): 27%
% tumor growth inhibition of TamR tumors (TamR xenograft tumors; AZD9496 10 mg/kg po qd, day 9 of treatment): 24%
% tumor growth inhibition of TamR tumors (TamR xenograft tumors; AZD9496 10 mg/kg po qd, day 11 of treatment): 30%
% tumor growth inhibition of TamR tumors (TamR xenograft tumors; AZD9496 10 mg/kg po qd, day 14 of treatment): 31%
% tumor growth inhibition of TamR tumors (TamR xenograft tumors; AZD9496 10 mg/kg po qd, day 16 of treatment): 32%
% tumor growth inhibition of TamR tumors (TamR xenograft tumors; AZD9496 10 mg/kg po qd, day 18 of treatment): 36%
% tumor growth inhibition of TamR tumors (TamR xenograft tumors; AZD9496 10 mg/kg po qd, day 21 of treatment): 43%
% tumor growth inhibition of TamR tumors (TamR xenograft tumors; AZD9496 10 mg/kg po qd, day 23 of treatment): 47%
% tumor growth inhibition of TamR tumors (TamR xenograft tumors; AZD9496 10 mg/kg po qd, day 25 of treatment): 46%
% tumor growth inhibition of TamR tumors (TamR xenograft tumors; AZD9496 10 mg/kg po qd, day 28 of treatment): 43%

CC/C(=C(/c1ccc(/C=C/C(=O)O)cc1)c1ccc2[nH]ncc2c1)c1ccc(F)cc1Cl [GDC0810]
Uterine wet weight (measure of uterine stimulation) (uterus): significantly increased uterine weight
% tumor growth inhibition of TamR tumors (TamR xenograft tumors; GDC0810 25 mg/kg po qd, day 0 of treatment): −5%
% tumor growth inhibition of TamR tumors (TamR xenograft tumors; GDC0810 25 mg/kg po qd, day 2 of treatment): 11%
% tumor growth inhibition of TamR tumors (TamR xenograft tumors; GDC0810 25 mg/kg po qd, day 4 of treatment): 22%
% tumor growth inhibition of TamR tumors (TamR xenograft tumors; GDC0810 25 mg/kg po qd, day 7 of treatment): 28%
% tumor growth inhibition of TamR tumors (TamR xenograft tumors; GDC0810 25 mg/kg po qd, day 9 of treatment): 27%
% tumor growth inhibition of TamR tumors (TamR xenograft tumors; GDC0810 25 mg/kg po qd, day 11 of treatment): 35%
% tumor growth inhibition of TamR tumors (TamR xenograft tumors; GDC0810 25 mg/kg po qd, day 14 of treatment): 32%
% tumor growth inhibition of TamR tumors (TamR xenograft tumors; GDC0810 25 mg/kg po qd, day 16 of treatment): 42%
% tumor growth inhibition of TamR tumors (TamR xenograft tumors; GDC0810 25 mg/kg po qd, day 18 of treatment): 51%
% tumor growth inhibition of TamR tumors (TamR xenograft tumors; GDC0810 25 mg/kg po qd, day 21 of treatment): 49%
% tumor growth inhibition of TamR tumors (TamR xenograft tumors; GDC0810 25 mg/kg po qd, day 23 of treatment): 53%
% tumor growth inhibition of TamR tumors (TamR xenograft tumors; GDC0810 25 mg/kg po qd, day 25 of treatment): 53%
% tumor growth inhibition of TamR tumors (TamR xenograft tumors; GDC0810 25 mg/kg po qd, day 28 of treatment): 52%

N#Cc1ccc(C(c2ccc(C#N)cc2)n2cncn2)cc1 [Letrozole, letrozole]
Uterine wet weight (measure of uterine stimulation) (uterus): no response of uterine weight
